According to ChEMBL document CHEMBL3044915, “Synthesis and Insecticidal Activity of N-(4-Aryloxybenzyl)-pyrazolecarboxamide Derivatives” (1996):

Key:
Assay type in all cases: functional
[1] = tested on: Nephotettix cincticeps; assay: Insecticidal activity against green rice Nephotettix cincticeps (green rice leafhopper) third-instar larvae assessed as mortality at 12.5 ppm applied through spray measured after 4 days; conditions: 96 h
[2] = tested on: Nephotettix cincticeps; assay: Insecticidal activity against green rice Nephotettix cincticeps (green rice leafhopper) third-instar larvae assessed as mortality at 50 ppm applied through spray measured after 4 days; conditions: 96 h
[3] = tested on: Nephotettix cincticeps; assay: Insecticidal activity against green rice Nephotettix cincticeps (green rice leafhopper) third-instar larvae assessed as mortality at 3.1 ppm applied through spray measured after 4 days; conditions: for mortality at 3.1 ppm: Nephotettix cincticeps, 96 h
[4] = tested on: Nephotettix cincticeps; assay: Insecticidal activity against green rice Nephotettix cincticeps (green rice leafhopper) third-instar larvae assessed as mortality at 0.8 ppm applied through spray measured after 4 days; conditions: for mortality at 0.8 ppm: Nephotettix cincticeps, 96 h
[5] = tested on: Tetranychus urticae; assay: Insecticidal activity against Tetranychus urticae (two-spotted spider mite) assessed as mortality at 12.5 ppm
[6] = tested on: Nilaparvata lugens; assay: Insecticidal activity against Nilaparvata lugens (brown planthopper) third-instar larvae assessed as mortality at 3.1 ppm applied through spray measured after 5 days; conditions: 120 h
[7] = tested on: Myzus persicae; assay: Insecticidal activity against Myzus persicae (green peach aphid) assessed as mortality at 12.5 ppm measured after 4 days; conditions: 96 h
[8] = tested on: Myzus persicae; assay: Insecticidal activity against Myzus persicae (green peach aphid) assessed as mortality at 0.8 ppm measured after 4 days; conditions: 96 h
[9] = tested on: Nilaparvata lugens; assay: Insecticidal activity against Nilaparvata lugens (brown planthopper) third-instar larvae assessed as mortality at 0.8 ppm applied through spray measured after 5 days; conditions: 120 h
[10] = tested on: Myzus persicae; assay: Insecticidal activity against Myzus persicae (green peach aphid) assessed as mortality at 3.1 ppm measured after 4 days; conditions: 96 h
[11] = tested on: Plutella xylostella; assay: Insecticidal activity against Plutella xylostella (diamondback moth) third-instar larvae in compound treated cabbage leaf assessed as mortality at 0.8 ppm measured after 4 days; conditions: 96 h
[12] = tested on: Plutella xylostella; assay: Insecticidal activity against Plutella xylostella (diamondback moth) third-instar larvae in compound treated cabbage leaf assessed as mortality at 3.1 ppm measured after 4 days; conditions: 96 h
[13] = tested on: Nilaparvata lugens; assay: Insecticidal activity against Nilaparvata lugens (brown planthopper) third-instar larvae assessed as mortality at 12.5 ppm applied through spray measured after 5 days; conditions: 120 h
[14] = tested on: Plutella xylostella; assay: Insecticidal activity against Plutella xylostella (diamondback moth) third-instar larvae in compound treated cabbage leaf assessed as mortality at 12.5 ppm measured after 4 days; conditions: 96 h
[15] = tested on: Tetranychus urticae; assay: Insecticidal activity against Tetranychus urticae (two-spotted spider mite) assessed as mortality at 3.1 ppm

SMILES	mortality at 12.5 ppm [1] [%]	mortality at 50 ppm [2] [%]	mortality at 3.1 ppm [3] [%]	also measured
CCc1nn(C)c(C(=O)NCc2ccc(Oc3ccc(C(C)C)cc3)cc2)c1Cl	30	80		
CCc1nn(C)c(C(=O)NCc2ccc(Oc3ccc(S(C)(=O)=O)cc3)cc2)c1Cl	100	100	30	
CC1CCc2c1nn(C)c2C(=O)NC(C)c1ccc(Oc2ccc(C(F)(F)F)cc2)cc1 (single isomer, unassigned; diastereomer 2)	100	100	80	mortality at 0.8 ppm [4]: 0%
CCc1nn(C)c(C(=O)NCc2ccc(Oc3ccc(SC(C)C)cc3)cc2)c1Cl	30	100	30	
CCc1nn(C)c(C(=O)NCc2ccc(Oc3ccc(SC)cc3)cc2)c1Cl	100	100	80	
CSc1ccc(Oc2ccc(CNC(=O)c3c4c(nn3C)C(C)CC4)cc2)cc1 (centres undefined)	100		80	mortality at 12.5 ppm [5]: 100%; mortality at 3.1 ppm [6]: 30%; mortality at 12.5 ppm [7]: 100%; mortality at 0.8 ppm [8]: 0%; mortality at 0.8 ppm [9]: 30%; mortality at 3.1 ppm [10]: 100%; mortality at 0.8 ppm [11]: 0%; mortality at 3.1 ppm [12]: 80%; mortality at 12.5 ppm [13]: 80%; mortality at 12.5 ppm [14]: 100%; mortality at 0.8 ppm [4]: 30%; mortality at 3.1 ppm [15]: 80%
CC1CCc2c1nn(C)c2C(=O)NCc1ccc(Oc2ccc(C(F)(F)F)cc2)cc1 (single isomer, unassigned; (-))	100	100		mortality [3]: 100%; mortality [4]: 80%
CCc1ccc(Oc2ccc(CNC(=O)c3c(Cl)c(CC)nn3C)cc2)cc1	80	100	30	
CCc1nn(C)c(C(=O)NCc2ccc(Oc3ccc(C)cc3)cc2)c1Cl [TOLFENPYRAD]	100	100	30	
CCc1nn(C)c(C(=O)NCc2ccc(Oc3ccc(OC)cc3)cc2)c1Cl	100	100	30	
CCc1nn(C)c(C(=O)NCc2ccc(Oc3ccc(CC(C)C)cc3)cc2)c1Cl		0		
CCc1nn(C)c(C(=O)NCc2ccc(Oc3ccc(OC(C)C)cc3)cc2)c1Cl	30	80	0	
CCc1nn(C)c(C(=O)NCc2ccc(Oc3ccc(C(F)(F)F)cc3)cc2)c1Br	100	100	30	mortality at 0.8 ppm [4]: 30%
CCc1nn(C)c(C(=O)NCc2ccc(Oc3ccc([N+](=O)[O-])cc3)cc2)c1Cl	100	100	100	
CCc1nn(C)c(C(=O)NCc2ccc(Oc3ccc([S+](C)[O-])cc3)cc2)c1Cl (centres undefined)	100	100	30	
CC1CCc2c1nn(C)c2C(=O)NC(C)(C)c1ccc(Oc2ccc(C(F)(F)F)cc2)cc1 (centres undefined)		0		
CC1CCc2c1nn(C)c2C(=O)NCc1ccc(Oc2ccc([N+](=O)[O-])cc2)cc1 (centres undefined)	100		100	mortality at 12.5 ppm [5]: 80%; mortality at 3.1 ppm [6]: 80%; mortality at 12.5 ppm [7]: 100%; mortality at 0.8 ppm [8]: 30%; mortality at 0.8 ppm [9]: 0%; mortality at 3.1 ppm [10]: 100%; mortality at 0.8 ppm [11]: 0%; mortality at 3.1 ppm [12]: 100%; mortality at 12.5 ppm [13]: 80%; mortality at 12.5 ppm [14]: 100%; mortality at 0.8 ppm [4]: 30%; mortality at 3.1 ppm [15]: 30%
CC1CCc2c1nn(C)c2C(=O)NCc1ccc(Oc2ccc(C(F)(F)F)cc2)cc1 (single isomer, unassigned; (+))				mortality [3]: 30%
Cn1ncc(Cl)c1C(=O)NCc1ccc(Oc2ccc(C(F)(F)F)cc2)cc1	80	100	30	
Cc1nn(C)c(C(=O)NCc2ccc(Oc3ccc(C(F)(F)F)cc3)cc2)c1Cl	80	100	80	mortality at 0.8 ppm [4]: 30%

SMILES	mortality at 12.5 ppm [1] [%]	mortality at 50 ppm [2] [%]	mortality at 3.1 ppm [3] [%]	also measured
CC1CCc2c1nn(C)c2C(=O)NCc1ccc(Oc2ccc(C#N)cc2)cc1 (centres undefined)	30		0	mortality at 12.5 ppm [5]: 100%; mortality at 3.1 ppm [6]: 80%; mortality at 12.5 ppm [7]: 100%; mortality at 0.8 ppm [8]: 0%; mortality at 0.8 ppm [9]: 80%; mortality at 3.1 ppm [10]: 80%; mortality at 0.8 ppm [11]: 30%; mortality at 3.1 ppm [12]: 100%; mortality at 12.5 ppm [13]: 100%; mortality at 12.5 ppm [14]: 100%; mortality at 3.1 ppm [15]: 100%
CCc1nn(C)c(C(=O)NCc2ccc(Oc3ccc(C#N)cc3)cc2)c1Cl	100	100	0	
CCSc1ccc(Oc2ccc(CNC(=O)c3c(Cl)c(CC)nn3C)cc2)cc1	80	100	30	
CCc1nn(C)c(C(=O)NCc2ccc(Oc3ccc(OCC(F)(F)F)cc3)cc2)c1Cl	30	100		
Cn1nc2c(c1C(=O)NCc1ccc(Oc3ccc(C(F)(F)F)cc3)cc1)CCC2	100	100	100	mortality at 0.8 ppm [4]: 0%
CC1CCc2c1nn(C)c2C(=O)NCc1ccc(Oc2ccc(C(F)(F)F)cc2)cc1 (racemic)				mortality at 12.5 ppm [5]: 100%; mortality at 3.1 ppm [6]: 100%; mortality at 12.5 ppm [7]: 100%; mortality at 0.8 ppm [8]: 100%; mortality at 0.8 ppm [9]: 100%; mortality at 3.1 ppm [10]: 100%; mortality at 0.8 ppm [11]: 0%; mortality at 3.1 ppm [12]: 80%; mortality at 12.5 ppm [13]: 100%; mortality at 12.5 ppm [14]: 100%; mortality [4]: 30%; mortality at 3.1 ppm [15]: 100%
CCc1nn(C)c(C(=O)NCc2ccc(Oc3ccccc3)cc2)c1Cl	30	100		
CCc1nn(C)c(C(=O)NCc2ccc(Oc3ccc(C(F)(F)F)cc3)cc2)c1Cl	100	100	30	
CC(C)c1nn(C)c(C(=O)NCc2ccc(Oc3ccc(C(F)(F)F)cc3)cc2)c1Cl	80	80	30	
CC1CCc2c1nn(C)c2C(=O)NCc1ccc(C(C)(C)C)cc1 (centres undefined)	30			mortality at 12.5 ppm [5]: 100%; mortality at 12.5 ppm [7]: 0%; mortality at 12.5 ppm [13]: 0%; mortality at 12.5 ppm [14]: 0%; mortality at 3.1 ppm [15]: 100%
CCC1CCc2c1nn(C)c2C(=O)NCc1ccc(Oc2ccc(C(F)(F)F)cc2)cc1 (centres undefined)	100	100	30	mortality at 0.8 ppm [4]: 0%
Cn1nc2c(c1C(=O)NCc1ccc(Oc3ccc(C(F)(F)F)cc3)cc1)CCCC2	80	100	80	mortality at 0.8 ppm [4]: 0%
CCc1nn(C)c(C(=O)NCc2ccc(Oc3ccc(C(F)F)cc3)cc2)c1Cl	100	100	100	
CCc1nn(C)c(C(=O)NCc2ccc(Oc3ccc(C(F)(F)F)cc3)cc2)c1F	100	100	30	mortality at 0.8 ppm [4]: 0%
CCc1nn(C)c(C(=O)NCc2ccc(Oc3ccc(OC(F)F)cc3)cc2)c1Cl	100	100	80	
CCc1cc(C(=O)NCc2ccc(Oc3ccc(C(F)(F)F)cc3)cc2)n(C)n1	100	100	30	
CC1CCCc2c1nn(C)c2C(=O)NCc1ccc(Oc2ccc(C(F)(F)F)cc2)cc1 (centres undefined)	100	100	0	mortality at 0.8 ppm [4]: 0%
CCc1nn(C)c(C(=O)NCc2ccc(C(C)(C)C)cc2)c1Cl [TEBUFENPYRAD]	0			mortality at 12.5 ppm [5]: 100%; mortality at 12.5 ppm [7]: 30%; mortality at 12.5 ppm [13]: 0%; mortality at 12.5 ppm [14]: 0%; mortality at 3.1 ppm [15]: 100%
CCc1nn(C)c(C(=O)NCc2ccc(Oc3ccc(Cl)cc3)cc2)c1Cl	80	100	80	
